Like-named read-outs stand apart in the source and are kept apart here.

Data set [1] can be described thus: THP-1 macrophage infection assay: cytotoxicity to host cells. As to conditions: human.
Data set [2] concerns intracellular L. donovani in THP-1 macrophage host cells. Briefly: THP-1 macrophage infection assay: anti L. donovani activity. As to conditions: for SI (CC50/IC50): THP-1 CC50 / L. donovani IC50; for L. donovani growth inhibitory activity (in words): L. donovani in THP-1 macrophages.
Data set [3] has the same test system.
The next data set has as its system HepG2. Details: method as in PMID 25740547. As to conditions: GSK screen; read-out: CC50 against HepG2 cells; cited from earlier work.
A short description of data set [4]: Metabolic stability of compound 1. In kind it is in vitro ADME. From the text: We first analyzed compound 1 for physicochemical parameters such as the molecular weight, cLogP, polar surface area, freely rotatable bonds, hydrogen bond donors and acceptors and solubility at pH 2 and 6.5, as well as metabolic stability to evaluate its drug-likeness (Table 1). […] These “drug-like” physicochemical properties and the good synthetic accessibility of the scaffold further supported exploring the compound’s SAR to reveal valuable insights and guidance for drug developers.

In data set [5] the test system is L. donovani in infected macrophages. Details: method as in PMID 25740547. As to conditions: cited from earlier work.
Data set [6] deals with L. donovani amastigote/macrophages. Details: method as in PMID 25740547. As to conditions: GSK kinetoplastid high-throughput screen; cited from earlier work.
Where [7] appears, read: Leishmania donovani, THP-1, read-out: IC50 (reduction of total number of parasites by 50%).

One may read the IC50 as the point on the concentration scale where inhibition reaches its midpoint. In the case of `COc1cccc(-c2ccc(C(=O)NNC(=O)Cc3nc4ccccc4n3C)nc2)c1` [Compound 17g, 5-(3-Methoxyphenyl)-N′-(2-(1-methyl-1H-benzo[d]imidazole-2-yl)acetyl)picolinohydrazide], the CC50 at 72 h in data set [1] is over 100 µM. Moreover, in data set [2] (setting [7]), the IC50 was found to be 0.6 µM. Besides, the “SI (CC50/IC50)” value in data set [2] is listed as over 172.
Compound `Cn1c(CC(=O)NNC(=O)c2ccc(-c3ccc(C#N)cc3)cn2)nc2ccccc21` [Compound 17e, 5-(4-Cyanophenyl)-N′-(2-(1-methyl-1H-benzo[d]imidazole-2-yl)acetyl)picolinohydrazide] displayed a CC50 at 72 h in data set [1] of 96 µM. In data set [2] (setting [7]), the IC50 is 0.8 µM. Further, in data set [2], the “SI (CC50/IC50)” value worked out at 120.
In the same order, the values of `Cn1c(CC(=O)NNC(=O)c2ccc(-c3cccc(C#N)c3)cn2)nc2ccccc21` [Compound 17d, 5-(3-Cyanophenyl)-N′-(2-(1-methyl-1H-benzo[d]imidazole-2-yl)acetyl)picolinohydrazide] are over 100 µM, 1.4 µM and over 74.
As for `Cn1c(CC(=O)NNC(=O)c2ccccn2)nc2ccccc21` [Compound 13b, N′-(2-(1-Methyl-1H-benzo[d]imidazole-2-yl)acetyl)picolinohydrazide], in data set [1], the CC50 at 72 h came out at 62 µM. For the same compound, the half-maximal inhibitory concentration (IC50) in data set [2] (setting [7]) came to 44 µM. Besides, in data set [2], the “SI (CC50/IC50)” value stood at 1.4.
Turning to `Cn1c(CC(=O)NNC(=O)c2ccc(-c3ccccc3Cl)cn2)nc2ccccc21` [Compound 17a, 5-(2-Chlorophenyl)-N′-(2-(1-methyl-1H-benzo[d]imidazole-2-yl)acetyl)picolinohydrazide], the CC50 at 72 h in data set [1] was over 100 µM. The IC50 in data set [2] (setting [7]) was determined as 1 µM. Further, in data set [2], the “SI (CC50/IC50)” value is over 103.
“N′-(2-(Imidazole-2-yl)acetyl)quinoline-2-carbohydrazide [Compound 12]” had a CC50 in the data set with THP-1 macrophages of 33 µM. In data set [2] (L. donovani in THP-1 macrophage host cells, 10-point curve, top 100 μM, duplicates, n = 1), this compound returned a Complete parasite clearance of over 100 µM. Further, the IC50 in data set [2] (read-out: IC50 (reduction of total number of parasites by 50%), L. donovani in THP-1 macrophage host cells, 10-point curve, 2× serial dilution, top 100 μM, duplicates, n = 1) stood at 45 µM. In addition, in data set [3], the “SI (CC50/IC50)” value stood at 0.7.
Regarding `COc1ccc(-c2ccc(C(=O)NNC(=O)Cc3nc4ccccc4n3C)nc2)cc1` [Compound 17h, 5-(4-Methoxyphenyl)-N′-(2-(1-methyl-1H-benzo[d]imidazole-2-yl)acetyl)picolinohydrazide], the CC50 at 72 h in data set [1] was over 100 µM. In data set [2] (setting [7]), the IC50 was determined as 0.7 µM. Moreover, the “SI (CC50/IC50)” value in data set [2] is given as over 145.
The compound `Cn1c(CC(=O)NNC(=O)c2cccc(-c3ccccc3)n2)nc2ccccc21` [Compound 13d, N′-(2-(1-Methyl-1H-benzo[d]imidazole-2-yl)acetyl)-6-phenylpicolinohydrazide] came in with a CC50 at 72 h in data set [1] of over 100 µM. Further, the IC50 in data set [2] (setting [7]) turned out to be 20 µM.
`Cn1c(CC(=O)NNC(=O)c2ccc3ccccc3n2)nc2ccccc21` [Compound 1, N′-(2-(1-Methyl-1H-benzo[d]imidazole-2-yl)acetyl)quinoline-2-carbohydrazide]: the CC50 in the data set with HepG2 was about 100 µM. In addition, the microsomal CLint in data set [4] (intrinsic clearance, read-out: metabolic stability Clint,in vitro) came to 22 µL/min/mg. In data set [4] (read-out: metabolic stability half-life t1/2), the half-life was found to be 1.33 h. In addition, in data set [5] (GSK kinetoplastid high-throughput screen), the “pIC50 L. donovani in infected macrophages” value was about 5.9. Further, the IC50 in data set [5] (GSK screen, read-out: IC50 against L. donovani in infected macrophages) is about 1.3 µM; in data set [2] (setting [7]) it was 1.9 µM. Also, the “therapeutic window CC50/IC50 (selectivity for the parasite)” value in data set [5] (HepG2 CC50 / L. donovani IC50, GSK screen) is about 79. The CC50 at 72 h in data set [1] is over 100 µM. Further, in data set [6], the “pIC50 L. donovani imaging: amastigote/macrophages” value is 6.1. The “SI (CC50/IC50)” value in data set [2] is on record as over 54.
On to `Cn1c(CC(=O)NNC(=O)c2ccc(-c3ccc(Cl)cc3)cn2)nc2ccccc21` [Compound 17c, 5-(4-Chlorophenyl)-N′-(2-(1-methyl-1H-benzo[d]imidazole-2-yl)acetyl)picolinohydrazide], for which the CC50 at 72 h in data set [1] was found to be 73 µM. Moreover, the IC50 in data set [2] (setting [7]) was found to be 1 µM. The “SI (CC50/IC50)” value in data set [2] was found to be 74.
As to `Cn1c(CC(=O)NNC(=O)c2ccc(-c3ccccc3)cn2)nc2ccccc21` [Compound 13e, N′-(2-(1-Methyl-1H-benzo[d]imidazole-2-yl)acetyl)-5-phenylpicolinohydrazide], the CC50 at 72 h in data set [1] was 49 µM. Also, the IC50 in data set [2] (setting [7]) was found to be 1.7 µM. Also, in data set [2], the “SI (CC50/IC50)” value was found to be 29.
In data set [1], `Cn1c(CC(=O)NNC(=O)c2ccccc2)nc2ccccc21` [Compound 13c, N′-(2-(1-Methyl-1H-benzo[d]imidazole-2-yl)acetyl)benzohydrazide] yielded a CC50 at 72 h of over 100 µM. Besides, the “L. donovani growth inhibitory activity (in words)” value in data set [2] is listed as “completely lost their L. donovani growth inhibitory activity”. Also, the IC50 in data set [2] (setting [7]) was over 100 µM.
For the compound `O=C(Cc1nc2ccccc2o1)NNC(=O)c1ccc2ccccc2n1` [Compound 5c, N′-(2-(Benzo[d]oxazol-2-yl)acetyl)quinoline-2-carbohydrazide], in data set [1], the CC50 at 72 h was 54 µM. For the same compound, the concentration for half-maximal inhibition (IC50) in data set [2] (setting [7]) was 49 µM. The “SI (CC50/IC50)” value in data set [2] amounted to 1.1.
With `O=C(Cc1nc2ccccc2[nH]1)NNC(=O)c1ccc2ccccc2n1` [Compound 5a, N′-(2-(1H-Benzo[d]imidazole-2-yl)acetyl)quinoline-2-carbohydrazide], in data set [1], the CC50 at 72 h is over 100 µM. Also, in data set [2] (setting [7]), the concentration for half-maximal inhibition (IC50) was determined as 5.9 µM. Besides, the “SI (CC50/IC50)” value in data set [2] is over 17.
The compound `O=C(Cc1nc2ccccc2s1)NNC(=O)c1ccc2ccccc2n1` [Compound 5b] came in with a CC50 at 72 h in data set [1] of over 100 µM. Also, the IC50 in data set [2] (setting [7]) is over 100 µM.
In data set [1], `Cc1ccccc1-c1ccc(C(=O)NNC(=O)Cc2nc3ccccc3n2C)nc1` [Compound 17i, N′-(2-(1-Methyl-1H-benzo[d]imidazole-2-yl)acetyl)-5-(o-tolyl)picolinohydrazide] yielded a CC50 at 72 h of 67 µM. In data set [2] (setting [7]), the IC50 stood at 0.4 µM. In addition, in data set [2], the “SI (CC50/IC50)” value is 168.
For `Cn1c(CC(=O)NNC(=O)c2ccc3ccccc3c2)nc2ccccc21` [Compound 13a, N′-(2-(1-Methyl-1H-benzo[d]imidazole-2-yl)acetyl)-2-naphthohydrazide], in data set [1], the CC50 at 72 h was over 100 µM. Further, in data set [2], the “L. donovani growth inhibitory activity (in words)” value was “completely lost their L. donovani growth inhibitory activity”. Moreover, in data set [2] (setting [7]), the IC50 is over 100 µM.
In turn, `Cn1c(CC(=O)NNC(=O)c2ccc(-c3cccc(Cl)c3)cn2)nc2ccccc21` [Compound 17b, 5-(3-Chlorophenyl)-N′-(2-(1-methyl-1H-benzo[d]imidazole-2-yl)acetyl)picolinohydrazide] yielded a CC50 at 72 h in data set [1] of 94 µM. Also, in data set [2] (setting [7]), the concentration for half-maximal inhibition (IC50) is 1 µM. Moreover, the “SI (CC50/IC50)” value in data set [2] came out at 94.
In data set [1], `Cc1cccc(-c2ccc(C(=O)NNC(=O)Cc3nc4ccccc4n3C)nc2)c1` [Compound 17j, N′-(2-(1-Methyl-1H-benzo[d]imidazole-2-yl)acetyl)-5-(m-tolyl)picolinohydrazide] came in with a CC50 at 72 h of 52 µM. In data set [2] (setting [7]), the IC50 came out at 0.3 µM. In data set [2], the “SI (CC50/IC50)” value turned out to be 173.
Taken in the same sequence, the figures for `Cc1ccc(-c2ccc(C(=O)NNC(=O)Cc3nc4ccccc4n3C)nc2)cc1` [Compound 17k, N′-(2-(1-Methyl-1H-benzo[d]imidazole-2-yl)acetyl)-5-(p-tolyl)picolinohydrazide] were over 100 µM, 0.2 µM and over 500.
On to `COc1ccccc1-c1ccc(C(=O)NNC(=O)Cc2nc3ccccc3n2C)nc1` [Compound 17f, 5-(2-Methoxyphenyl)-N′-(2-(1-methyl-1H-benzo[d]imidazole-2-yl)acetyl)picolinohydrazide], for which the CC50 at 72 h in data set [1] worked out at 19 µM. Also, in data set [2] (setting [7]), the IC50 came out at 0.6 µM. In addition, in data set [2], the “SI (CC50/IC50)” value is 32.
